# Key:
# [1] = target: CYP2C9 (Homo sapiens, UniProt P11712); assay: Cytochrome P450 (2C9) Enzyme Inhibition Test; type: in vitro ADME; details: substrate 7-methoxy-4-(trifluoromethyl)cumarin, 37° C. 45 minutes; read-out: CYP2C9 inhibitory activity IC50
# Experimental: (§1) Using a 96 well plate, 7-benzyloxy-4-(trifluoromethyl)cumarin as the substrate (5×10^−5 M), each test compound (from 4.9×10^−8 to 5×10^−5 M) and the enzyme (5×10^−9 M) were incubated at 37° C. for 30 minutes in 200 μl in total volume of 200 mM phosphate buffer (pH=7.4) containing 8.2 μM NADP+, 0.41 mM glucose-6-phosphate, 0.41 mM MgCl2 and 0.4 units/ml glucose-6-phosphate dehydrogenase. Thereafter, the reaction was stopped by adding 0.5 M 2-amino-2-hydroxymethyl-1,3-propanediol aqueous solution containing 80% acetonitrile, and the fluorescence intensity (excitation wavelength; 409 nm, fluorescence wavelength; 530 nm) was measured using a fluorescence plate reader. The inhibition ratio was calculated based on the following formula, and concentration of each test compound by which the inhibition ratio becomes 50% (IC50) was obtained. Inhibition ratio (%)=100−(C1−B1)/(C0−B1)×100 C1: Fluorescence intensity in the presence of test compound having known concentration, enzyme and substrate C0: Fluorescence intensity in the absence of test compound and in the presence of enzyme and substrate B1: Fluorescence intensity of blank well (5) Cytochrome P450 (2C9) Enzyme Inhibition Test
# (§2) This test was carried out in accordance with the method of Crespi et al. (Analytical Biochemistry, 248, 188-190, 1997).
# Using a 96 well plate, 7-methoxy-4-(trifluoromethyl)cumarin as the substrate (7.5×10^−5 M), each test compound (from 4.9×10^−8 to 5×10^−5 M) and the enzyme (10^−8 M) were incubated at 37° C. for 45 minutes in 200 μl in total volume of 200 mM phosphate buffer (pH=7.4) containing 8.2 μM NADP+, 0.41 mM glucose-6-phosphate, 0.41 mM MgCl2 and 0.4 units/ml glucose-6-phosphate dehydrogenase. Thereafter, the reaction was stopped by adding 0.5 M 2-amino-2-hydroxymethyl-1,3-propanediol aqueous solution containing 80% acetonitrile, and the fluorescence intensity (excitation wavelength; 409 nm, fluorescence wavelength; 530 nm) was measured using a fluorescence plate reader. The inhibition ratio was calculated based on the same formula of aforementioned (4), and concentration of each test compound by which the inhibition ratio becomes 50% (IC50) was obtained.
# [2] = target: CYP3A4 (Homo sapiens, UniProt P08684); assay: Cytochrome P450 (3A4) Enzyme Inhibition Test; type: in vitro ADME; details: substrate 7-benzyloxy-4-(trifluoromethyl)cumarin, 37° C. 30 minutes; read-out: CYP3A4 inhibitory activity IC50
# Experimental: (4) Cytochrome P450 (3A4) Enzyme Inhibition Test
# as §2, §1
# [3] = target: T1, human V2 receptor (Homo sapiens, UniProt P30518); assay: V2 Receptor Binding Test; details: human V2 expression CHO cell membrane, [3H]-vasopressin 0.5 nM, 25° C. 60 minutes; read-out: Affinity for V2 receptor Ki
# T1 construct: expressed in transfected cells; host or cells: CHO cells (membrane preparation)
# Experimental: (1) V2 Receptor Binding Test
# A human V2 expression CHO cell membrane sample was prepared in accordance with the method of Tahara et al. (British Journal of Pharmacology, Vol. 125, pp. 1463-1470, 1998). A 2 μg portion of the membrane sample was incubated together with [^3H]-arginine vasopressin (to be referred simply to as “[^3H]-vasopressin” hereinafter) (0.5 nM, specific activity=75 Ci/mmol) and each compound to be tested (10^−10 to 10^−5 M) at 25° C. for 60 minutes in 250 μl in total volume of 50 mM Tris-HCl buffer (pH=7.4) containing 10 mM MgCl2 and 0.1% bovine serum albumin (BSA). Thereafter, free [^3H]-vasopressin and receptor-bonded [^3H]-vasopressin were separated using a cell harvester, and the receptor-bonded [^3H]-vasopressin was adhered onto a uni-filter plate GF/B glass filter. After sufficient drying, this was mixed with a microplate scintillation cocktail, amount of the receptor-bonded [^3H]-vasopressin was measured using top count and the inhibition ratio was calculated by the following formula. Inhibition ratio(%)=100−(C1−B1)/(C0−B1)×100 C1: Amount of [^3H]-vasopressin bonded to the membrane sample when [^3H]-vasopressin and the receptor membrane sample are treated in the coexistence of test compound having known concentration C0: Amount of [^3H]-vasopressin bonded to the membrane sample when [^3H]-vasopressin and the receptor membrane sample are treated in the absence of test compound B1: Amount of [^3H]-vasopressin bonded to the membrane sample when [^3H]-vasopressin and the receptor membrane sample are treated in the coexistence of excess amount of vasopressin (10^−6 M)
# Concentration of each test compound by which the inhibition ratio becomes 50% (IC50 value) was calculated by the aforementioned formula, and affinity of the test compound for the receptor, namely dissociation constant (Ki), was calculated from this by the following formula. Dissociation constant(Ki)=IC50/(1+[L]/Kd) [L]: Concentration of [^3H]-vasopressin Kd: Dissociation constant of [^3H]-vasopressin against the receptor obtained by a saturation binding test
# [4] = test system: male Wistar rats; assay: Antidiuretic Test (Intravenous Administration); type: in vivo; details: rat, 0.3 mg/kg intravenous, water loading 30 ml/kg 15 minutes later; for Urine excretion ratio (%) After 1 hour: urine until 1 hour; for Urine excretion ratio (%) After 2 hours: urine until 2 hours
# Experimental: (2) Antidiuretic Test (Intravenous Administration)
# Five animals per group of male Wistar rats (10 to 12 weeks of age) were used in the test. The compound of Example 3 was intravenously administered to group A at a dose of 0.3 mg/kg, and the compound of Example 9 to group B at a dose of 0.3 mg/kg, both after dissolving in a solvent (physiological saline containing DMSO), and the solvent alone at a dose of 1 ml/kg to group C as a control, and then 30 ml/kg of distilled water was orally administered by force 15 minutes thereafter (water loading). Urine samples until 2 hours after the water loading were collected using a metabolism cage, and the amount of urine when the water loading amount was defined as 100% was calculated as the urine excretion ratio. In this connection, average value of the urine excretion ratio until after 1 hour and the urine excretion ratio until after 2 hours in each group was used in the evaluation.
# Sequence of CYP2C9 (P11712 whole entry): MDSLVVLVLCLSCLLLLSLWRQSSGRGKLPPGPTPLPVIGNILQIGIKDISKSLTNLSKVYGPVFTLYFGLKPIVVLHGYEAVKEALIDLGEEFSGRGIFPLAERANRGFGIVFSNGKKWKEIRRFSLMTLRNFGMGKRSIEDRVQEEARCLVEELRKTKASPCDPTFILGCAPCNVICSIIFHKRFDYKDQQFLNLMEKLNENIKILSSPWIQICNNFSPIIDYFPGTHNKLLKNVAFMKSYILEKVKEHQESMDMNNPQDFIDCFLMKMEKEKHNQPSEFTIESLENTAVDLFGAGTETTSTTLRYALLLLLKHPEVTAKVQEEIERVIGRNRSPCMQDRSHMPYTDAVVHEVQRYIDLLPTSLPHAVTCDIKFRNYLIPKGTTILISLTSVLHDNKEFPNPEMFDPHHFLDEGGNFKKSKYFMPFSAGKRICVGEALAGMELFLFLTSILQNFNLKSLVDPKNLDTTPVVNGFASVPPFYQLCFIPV
# Sequence of CYP3A4 (P08684 whole entry): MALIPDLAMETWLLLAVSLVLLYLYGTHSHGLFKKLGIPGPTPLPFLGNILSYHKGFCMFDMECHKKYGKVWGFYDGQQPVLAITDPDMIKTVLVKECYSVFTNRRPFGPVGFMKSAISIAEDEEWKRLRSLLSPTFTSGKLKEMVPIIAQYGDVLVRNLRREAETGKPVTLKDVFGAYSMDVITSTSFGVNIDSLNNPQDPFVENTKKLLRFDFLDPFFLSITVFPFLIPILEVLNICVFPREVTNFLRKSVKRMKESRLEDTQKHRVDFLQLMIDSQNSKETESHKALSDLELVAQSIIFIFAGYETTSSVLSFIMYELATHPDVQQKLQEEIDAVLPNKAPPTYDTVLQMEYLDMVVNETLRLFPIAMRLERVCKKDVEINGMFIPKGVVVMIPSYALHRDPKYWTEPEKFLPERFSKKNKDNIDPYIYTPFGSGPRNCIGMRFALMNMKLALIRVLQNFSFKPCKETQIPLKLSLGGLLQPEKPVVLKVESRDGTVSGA
# T1 sequence (P30518 whole entry): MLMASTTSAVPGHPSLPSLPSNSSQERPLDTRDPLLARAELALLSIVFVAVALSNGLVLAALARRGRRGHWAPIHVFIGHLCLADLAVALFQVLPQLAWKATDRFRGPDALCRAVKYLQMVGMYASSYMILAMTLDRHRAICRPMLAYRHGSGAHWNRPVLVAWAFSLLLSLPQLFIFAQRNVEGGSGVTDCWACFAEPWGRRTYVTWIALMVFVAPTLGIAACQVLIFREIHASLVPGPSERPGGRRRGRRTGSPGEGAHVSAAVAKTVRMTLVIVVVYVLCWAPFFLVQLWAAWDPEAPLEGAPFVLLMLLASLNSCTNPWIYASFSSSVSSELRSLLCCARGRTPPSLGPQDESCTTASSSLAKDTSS
Structure (SMILES),IC50 [1],IC50 [2],Ki [3],Urine excretion ratio (%) After 1 hour [4],Urine excretion ratio (%) After 2 hours [4]
"CC(C)NC(=O)C[C@H]1CCCN(C(=O)c2ccc(N3CCCC3)cc2Cl)c2ccccc21 [Comparative compound, 2-[(5R)-1-(2-chloro-4-pyrrolidin-1-ylbenzoyl)-2,3,4,5-tetrahydrobenzazepin-5-yl]-N-isopropylacetamide, reference compound]",< 91 nM,< 91 nM,,,
NC(=O)CNC(=O)/C=C1/c2ccccc2N(C(=O)c2ccc(OCC3CC3)cc2C(F)(F)F)CCC1(F)F [Example 3],> 50000 nM,> 50000 nM,11 nM,1.3%,6.2%
CCCCOc1ccc(C(=O)N2CCC(F)(F)/C(=C\C(=O)NCC(N)=O)c3ccccc32)c(C(F)(F)F)c1 [Example 9],11000 nM,13000 nM,19 nM,0%,5.3%
CCCN(C)c1ccc(C(=O)N2CCC(F)(F)/C(=C\C(=O)NCC(N)=O)c3ccccc32)c(C(F)(F)F)c1 [Example 14],,,18 nM,,
CCCOc1ccc(C(=O)N2CCC(F)(F)/C(=C\C(=O)NCC(N)=O)c3cc(Cl)ccc32)c(C(F)(F)F)c1 [Example 24],,,4.3 nM,,
"C[C@@H](F)COc1ccc(C(=O)N2CCC(F)(F)/C(=C\C(=O)NCC(N)=O)c3cc(F)ccc32)c(C(F)(F)F)c1 [Example 31, (2Z)-N-(2-amino-2-oxoethyl)-2-{4,4,7-trifluoro-1-[4-{[(2R)-2-fluoropropyl]oxy}-2-(trifluoromethyl)benzoyl]-1,2,3,4-tetrahydro-5H-1-benzazepin-5-ylidene}acetamide]",,,10 nM,,
CCCOc1ccc(C(=O)N2CCC(F)(F)/C(=C\C(=O)NCCO)c3cc(F)ccc32)c(C(F)(F)F)c1 [Example 46],,,5.8 nM,,
"CC(F)(F)COc1ccc(C(=O)N2CCC(F)(F)/C(=C\C(=O)NCCO)c3ccccc32)c(C(F)(F)F)c1 [Example 51, (2Z)-2-{1-[4-(2,2-difluoropropoxy)-2-(trifluoromethyl)benzoyl]-4,4-difluoro-1,2,3,4-tetrahydro-5H-1-benzazepin-5-ylidene}-N-(2-hydroxyethyl)acetamide]",34000 nM,> 50000 nM,,,
"C[C@H](F)COc1ccc(C(=O)N2CCC(F)(F)/C(=C\C(=O)NCCO)c3cc(F)ccc32)c(C(F)(F)F)c1 [Example 54, (2Z)-N-(2-hydroxyethyl)-2-{4,4,7-trifluoro-1-[4-{[(2S)-2-fluoropropyl]oxy}-2-(trifluoromethyl)benzoyl]-1,2,3,4-tetrahydro-5H-1-benzazepin-5-ylidene}acetamide]",43000 nM,> 50000 nM,17 nM,,
"C[C@@H](F)COc1ccc(C(=O)N2CCC(F)(F)/C(=C\C(=O)NCCO)c3cc(F)ccc32)c(C(F)(F)F)c1 [Example 55, (2Z)-N-(2-hydroxyethyl)-2-{4,4,7-trifluoro-1-[4-{[(2R)-2-fluoropropyl]oxy}-2-(trifluoromethyl)benzoyl]-1,2,3,4-tetrahydro-5H-1-benzazepin-5-ylidene}acetamide]",,,16 nM,,
CCCOc1ccc(C(=O)N2CCC(F)(F)/C(=C\C(=O)Nc3cccc(O)c3)c3ccccc32)c(C(F)(F)F)c1 [Example 98],,,6.2 nM,,
"C[C@@H](F)COc1ccc(C(=O)N2CCC(F)(F)/C(=C\C(=O)NC[C@H](O)CO)c3ccccc32)c(C(F)(F)F)c1 [Example 130, (2Z)-2-{4,4-difluoro-1-[4-{[(2R)-2-fluoropropyl]oxy}-2-(trifluoromethyl)benzoyl]-1,2,3,4-tetrahydro-5H-1-benzazepin-5-ylidene}-N-[(2S)-2,3-dihydroxypropyl]acetamide]",> 50000 nM,> 50000 nM,,,
"C[C@@H](F)COc1ccc(C(=O)N2CCC(F)(F)/C(=C\C(=O)NCCC(N)=O)c3cc(F)ccc32)c(C(F)(F)F)c1 [Example 134, 3-[((2Z)-2-{4,4,7-trifluoro-1-[4-{[(2R)-2-fluoropropyl]oxy}-2-(trifluoromethyl)benzoyl]-1,2,3,4-tetrahydro-5H-1-benzazepin-5-ylidene}acetyl)amino]propanamide]",,,12 nM,,
"C[C@@H](F)COc1ccc(C(=O)N2CCC(F)(F)/C(=C\C(=O)NC[C@@H](O)CO)c3cc(F)ccc32)c(C(F)(F)F)c1 [Example 136, (2Z)-N-[(2R)-2,3-dihydroxypropyl]-2-{4,4,7-trifluoro-1-[4-{[(2R)-2-fluoropropyl]oxy}-2-(trifluoromethyl)benzoyl]-1,2,3,4-tetrahydro-5H-1-benzazepin-5-ylidene}acetamide]",> 50000 nM,> 50000 nM,11 nM,,
